This note sets out measurements from patent publication US20110306650A1 (Chiesi Farmaceutici S.p.A., priority 2010, published 2011).

This data set can be described thus: compatibility with other active ingredients in pharmaceutical formulations. In kind it is physicochemical. As to conditions: especially with formoterol; relative to glycopyrronium bromide.

Regarding `C[N+]1(C)CCC(OC(=O)C(O)(c2ccccc2)C2CCCC2)C1.[Cl-]` (stereo not shown) [glycopyrronium chloride], the “compatibility with other active ingredients” value is listed as “better compatibility”.
